Several values for one entry are separate records, joined by “and”; a condition that tells them apart may be missing. Equal entries are not always repeated. Marks after values point to notes of the source that are not given here.
Columns and labels:
[1] = biological target: T1, Rat recombinant α2,3(O)ST (Rattus norvegicus, UniProt Q11205); test: Sialyltransferase assay with cloned α2,3(O)ST; type: biochemical; settings: Table I; acceptor 7.5 mM; [14C] sialylated product quantitated on Biogel P2 column
T1 construct: purchased Calbiochem
T1 sequence (Q11205 1-350): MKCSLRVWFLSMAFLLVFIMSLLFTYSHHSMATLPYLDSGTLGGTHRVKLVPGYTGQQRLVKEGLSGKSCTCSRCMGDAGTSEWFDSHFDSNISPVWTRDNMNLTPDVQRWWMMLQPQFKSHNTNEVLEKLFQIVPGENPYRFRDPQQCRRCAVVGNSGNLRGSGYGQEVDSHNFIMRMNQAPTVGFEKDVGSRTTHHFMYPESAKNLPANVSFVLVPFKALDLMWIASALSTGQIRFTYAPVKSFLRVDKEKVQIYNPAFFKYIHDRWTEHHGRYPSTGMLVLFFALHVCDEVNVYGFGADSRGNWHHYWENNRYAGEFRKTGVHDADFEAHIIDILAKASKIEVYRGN

[2] = biological target: T2, Rat recombinant α2,3(N)ST (Rattus norvegicus, UniProt Q02734); test: Sialyltransferase assay with cloned α2,3(N)ST; type: biochemical; settings: for Sialyltransferase activity (%) Cloned α2,3(N)ST: Table I, acceptor 7.5 mM, 100% = 29520 CPM (Galβ1,4GlcNAcβ-O—Al); for Cloned Sialyltransferase Activities α2,3(N) ST %: Table III, compound 7.5 mM, 100% = 38140 CPM (Galβ1,4GlcNAcβ1,6(3-O-MeGalβ1,3)GalNAcα-O-Bn)
T2 construct: purchased Calbiochem
T2 sequence (Q02734 29-374 limits assumed): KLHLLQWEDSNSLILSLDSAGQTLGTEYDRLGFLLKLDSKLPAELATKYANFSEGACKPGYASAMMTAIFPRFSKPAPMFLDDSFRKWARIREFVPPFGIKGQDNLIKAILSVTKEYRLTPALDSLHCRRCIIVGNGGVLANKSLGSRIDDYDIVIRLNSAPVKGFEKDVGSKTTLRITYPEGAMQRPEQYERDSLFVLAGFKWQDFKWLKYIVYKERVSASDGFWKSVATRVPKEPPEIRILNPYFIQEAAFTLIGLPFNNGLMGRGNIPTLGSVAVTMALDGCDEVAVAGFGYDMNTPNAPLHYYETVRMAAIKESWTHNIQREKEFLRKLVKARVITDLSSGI
Description: (§1) Rat recombinant α2,3(O)ST, α2,3(N)ST and α2,6(N)ST were purchased from Calbiochem and stored at either −20° C. or −70° C. as recommended by the supplier. […] 10 μl aliquots of the diluted enzymes were used in the assays run in duplicate.
(§2) The incubation mixtures run in duplicate contained 0.1M NaCacodylate buffer pH6.0, the acceptor (typically at 7.5 mM, or as indicated in some experiments), CMP-[9 ^3H] NeuAc (typically 0.2 μci; 20 μci/nmol or as indicated in some experiments) and the enzyme in a total volume of 20 μl. The control incubation mixtures contained everything except the acceptor. Incubation was carried out for 2 h at 37° C. The enzymatic transfer of [9-^3H] NeuAc to a typical acceptor was linear for 2 h and less than 30% CMP-[9-^3H] NeuAc was utilized. Chromatography, using either Dowex-1-Formate, Sep-Pak C18 or Biogel P2, was applied to separate radioactive product from un-reacted [9-^3H] NeuAc as described below.
(§3) The radioactive products from neutral allyl and methyl glycosides as well as non-glycosides were measured by fractionation on Dowex-1-Formate (Bio-Rad: AG-1X8; 200-400 mesh; format form) as follows: The incubation mixture was diluted with 1.0 ml water and passed through AG-1-formate column (1.0 ml bed volume in a Pasteur pipet which had been washed with 5 ml of 2M Formic acid followed by 10 ml water). The column was washed twice with 1.0 ml water after the entry of the sample and then eluted with 3.0 ml of 0.1M NaCl. The radioactivity present in water and 0.1M NaCl eluates were measured separately using 3a70 scintillation cocktail (Research Products International, Mount Prospect, Ill.) and a Beckman LS6500 scintillation counter. The CPM values were corrected by subtracting the blank CPM. Any radioactivity present in the water eluate (as noticed in the case of some methylglycosides) was added to the corresponding CPM value of 0.1M NaCl eluate. The radioactive products from sulfated and/or sialylated methylglycosides were also measured by the above procedure, only the elution of the AG-1-Formate column was continued further with 3.0 ml of 0.2M NaCl for achieving a complete elution of the radioactive product, a correction being made as before by subtracting the corresponding blank values.
(§4) The radioactive products from benzylglycosides and monosialylated benzylglycosides were measured by hydrophobic chromatography on Sep-Pak C18 cartridge (Waters, Milford, Mass.) and eluting the product with 3.0 ml methanol (30). The radioactivity was determined by liquid scintillation as above.
(§5) For such work, a Biogel P2 column (Fine Mesh; 1.0×116.0 cm) was used with 0.1M pyridine acetate pH5.4 as the eluent at room temperature. The effluent fractions were monitored for radioactivity and the first peak containing radioactivity was collected, lyophilized to dryness, dissolved in 200 μl of water and stored frozen at −20° C. for thin layer chromatography (TLC) and other experimentation.

[3] = biological target: T3, Rat recombinant α2,6(N)ST (Rattus norvegicus, UniProt P13721); test: Sialyltransferase assay with cloned α2,6(N)ST; type: biochemical; settings: for Sialyltransferase activity (%) Cloned α2,6(N)ST: Table I, acceptor 7.5 mM, 100% = 43500 CPM (Galβ1,4GlcNAcβ-O—Al); for Cloned Sialyltransferase Activities α2,6(N)ST %: Table III, compound 7.5 mM, 100% = 30440 CPM (Galβ1,4GlcNAcβ1,6(3-O-MeGalβ1,3)GalNAcα-O-Bn)
T3 construct: purchased Calbiochem
T3 sequence (P13721 1-403): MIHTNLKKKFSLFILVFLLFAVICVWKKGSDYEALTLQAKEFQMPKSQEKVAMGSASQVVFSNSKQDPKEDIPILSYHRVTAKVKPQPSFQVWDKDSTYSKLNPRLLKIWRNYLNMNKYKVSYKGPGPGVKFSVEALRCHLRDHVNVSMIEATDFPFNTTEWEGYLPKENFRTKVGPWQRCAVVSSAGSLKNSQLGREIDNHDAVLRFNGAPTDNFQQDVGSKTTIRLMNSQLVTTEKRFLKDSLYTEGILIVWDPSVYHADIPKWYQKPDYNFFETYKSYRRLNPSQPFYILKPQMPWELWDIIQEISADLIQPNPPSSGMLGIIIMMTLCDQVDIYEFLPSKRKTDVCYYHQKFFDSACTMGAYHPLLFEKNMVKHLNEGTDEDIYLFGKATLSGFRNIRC
Description: as §1, §2, §3, §4, §5

[4] = biological target: T1, Rat recombinant α2,3(O)ST; test: Sialyltransferase assay with cloned α2,3(O)ST; type: biochemical; settings: for Sialyltransferase activity (%) Cloned α2,3(O)ST: Table I, acceptor 7.5 mM, 100% = 40560 CPM (3-O-MeGalβ1,4GlcNAcβ1,6(Galβ1,3)GalNAcα-O-Bn); for Cloned Sialyltransferase Activities α2,3(O) ST %: Table III, compound 7.5 mM, 100% = 39200 CPM (3-O-MeGalβ1,4GlcNAcβ1,6(Galβ1,3)GalNAcα-O-Bn)
Description: as §1, §2, §3, §4, §5

LNCaP α2,3(O)ST = test: Sialyltransferase assay with LNCaP cell extract; type: biochemical, human; settings: for Sialyltransferase activity (%) LNCaP α2,3(O)ST: Table I, acceptor 7.5 mM, 100% = 30930 CPM (3-O-MeGalβ1,4GlcNAcβ1,6(Galβ1,3)GalNAcα-O-Bn); for LNCaPα2,3(O)ST %: Table III, compound 7.5 mM, 100% = 30100 CPM (3-O-MeGalβ1,4GlcNAcβ1,6(Galβ1,3)GalNAcα-O-Bn)
Description: The prostate carcinoma cell line, LNCaP, was grown in RPMI 1640 supplemented with 10% fetal bovine serum and antibiotics (penicillin, streptomycin and amphotericin B) under conditions recommended by American Type Culture Collection (Manassas, Va.). The cells were homogenized with 0.1M Tris-Maleate pH6.3 containing 2% Triton X-100 using a Dounce all glass hand-operated homogenizer. The homogenate was centrifuged at 16,000 g for 1 h at 4° C. Protein concentration in supernatant was measured using the BCA assay (Pierce Biotech, Inc., Rockford, Ill.), with BSA as the standard. The supernatant was adjusted to 5 mg protein/ml by adding the necessary amount of extraction buffer and then stored frozen at −20° C. until use. 10 μl aliquot of this extract was used in assays run in duplicate.
as §2, §3, §4, §5

| SMILES | Sialyltransferase activity (%) Cloned α2,3(N)ST [2] | Cloned Sialyltransferase Activities α2,3(N) ST % [2] | Sialyltransferase activity (%) Cloned α2,6(N)ST [3] | Cloned Sialyltransferase Activities α2,6(N)ST % [3] | Sialyltransferase activity (%) Cloned α2,3(O)ST [4] | Cloned Sialyltransferase Activities α2,3(O) ST % [4] | Sialyltransferase activity (%) LNCaP α2,3(O)ST (LNCaP α2,3(O)ST) | LNCaPα2,3(O)ST % (LNCaP α2,3(O)ST) | other results |
| --- | --- | --- | --- | --- | --- | --- | --- | --- | --- |
| CC(=O)NC1C(OCC2OC(OCc3ccccc3)C(NC(C)=O)C(OC3OC(CO)C(O)C(O)C3O)C2O)OC(COS(=O)(=O)O)C(OC2OC(CO)C(O)C(O)C2O)C1O (stereo not drawn) [Galβ1,4(6-O-Sulfo)GlcNAcβ1,6(Galβ1,3)GalNAcα-O-Bn] |  |  |  |  |  |  |  |  | Sialyltransferase activity (%) Cloned α2,3(O)ST [1]: 69.4% and 69.4^e % |
| CC(=O)N[C@H]1[C@H](OC[C@H]2O[C@H](OCc3ccccc3)[C@H](NC(C)=O)[C@@H](O[C@@H]3O[C@H](CO)[C@H](O)[C@H](O)[C@H]3O)[C@H]2O)O[C@H](COS(=O)(=O)O)[C@@H](O)[C@@H]1O [6-O-SulfoGlcNAcβ1,6(Galβ1,3)GalNAcα-O-Bn] |  |  |  |  |  |  |  |  | Sialyltransferase activity (%) Cloned α2,3(O)ST [1]: 49.4% and 49.4^e,5% |
| CO[C@H]1O[C@H](CO[C@@H]2O[C@H](COS(=O)(=O)O)[C@@H](O[C@@H]3O[C@H](CO)[C@H](O)[C@H](O)[C@H]3O)[C@H](O)[C@H]2NC(C)=O)[C@H](O)[C@H](O[C@@H]2O[C@H](CO)[C@H](O)[C@H](O)[C@H]2O)[C@H]1NC(C)=O [Galβ1,4(6-O-Sulfo)GlcNAcβ1,6(Galβ1,3)GalNAcα-O-Me] | 28.1% and 28.1^21% |  | 30.6^17% |  | 27.2% |  | 14.8% |  | Sialyltransferase activity (%) Cloned α2,3(N)ST ([2]; listed as Galβ1,4(6-O-Sulfo)GlcNAcβ1,6(Galβ1,3)GalNAcα-): 28.1% |
| C=CCO[C@@H]1O[C@H](CO)[C@@H](O[C@@H]2O[C@H](CO)[C@H](O)[C@H](O)[C@H]2O)[C@H](O)[C@H]1NC(C)=O [Galβ1,4GlcNAcβ-O—Al] | 100.0^a % |  | 100.0% and 100.0^b % |  | 4.7% |  | 0.5% |  |  |

Second part, led by results:

| Sialyltransferase activity (%) Cloned α2,3(N)ST [2] | Cloned Sialyltransferase Activities α2,3(N) ST % [2] | Sialyltransferase activity (%) Cloned α2,6(N)ST [3] | Cloned Sialyltransferase Activities α2,6(N)ST % [3] | Sialyltransferase activity (%) Cloned α2,3(O)ST [4] | Cloned Sialyltransferase Activities α2,3(O) ST % [4] | SMILES | Sialyltransferase activity (%) LNCaP α2,3(O)ST (LNCaP α2,3(O)ST) | LNCaPα2,3(O)ST % (LNCaP α2,3(O)ST) | other results |
| --- | --- | --- | --- | --- | --- | --- | --- | --- | --- |
| 95.3% | 100.0^b % | 97.7% | 100.0^a % | 49.6% | 49.6% | CO[C@H]1[C@@H](O)[C@@H](CO)O[C@@H](O[C@H]2[C@@H](O)[C@@H](CO[C@@H]3O[C@H](CO)[C@@H](O[C@@H]4O[C@H](CO)[C@H](O)[C@H](O)[C@H]4O)[C@H](O)[C@H]3NC(C)=O)O[C@H](OCc3ccccc3)[C@@H]2NC(C)=O)[C@@H]1O [Galβ1,4GlcNAcβ1,6(3-O-MeGalβ1,3)GalNAcα-O-Bn] | 3.0% | 3.0% |  |
| 6.1% | 4.5% | 4.4% | 6.4% | 100.0% and 100.0^c % | 100.0^c % | CO[C@H]1[C@@H](O)[C@@H](CO)O[C@@H](O[C@H]2[C@H](O)[C@@H](NC(C)=O)[C@H](OC[C@H]3O[C@H](OCc4ccccc4)[C@H](NC(C)=O)[C@@H](O[C@@H]4O[C@H](CO)[C@H](O)[C@H](O)[C@H]4O)[C@H]3O)O[C@@H]2CO)[C@@H]1O [3-O-MeGalβ1,4GlcNAcβ1,6(Galβ1,3)GalNAcα-O-Bn] | 100.9% and 100.0% and 100.0^d % | 100.0^d % |  |
|  | 99.8% |  | 12.6% |  | 103.0% | CO[C@@H]1[C@H](O)[C@@H](O)[C@H](O[C@H]2[C@H](O)[C@@H](NC(C)=O)[C@H](OC[C@H]3O[C@H](OCc4ccccc4)[C@H](NC(C)=O)[C@@H](O[C@@H]4O[C@H](CO)[C@H](O)[C@H](O)[C@H]4O)[C@H]3O)O[C@@H]2CO)O[C@@H]1CO [4-O-MeGalβ1,4GlcNAcβ1,6(Galβ1,3)GalNAcα-O-Bn] |  | 97.1% | α2,3(N)ST activity compared to Galβ1,4GlcNAcβ1,6(Galβ1,3)GalNAcα-O-Bn (FIG. 3B) ([2]; lowest concentration tested, 0.05 mM): four fold; α2,3(N)ST activity compared to Galβ1,4GlcNAcβ1,6(Galβ1,3)GalNAcα-O-Bn (FIG. 3B) ([2]; maximum concentration tested, 0.25 mM): two-fold; α2,6(N)ST activity at varying acceptor concentration (FIG. 3A) ([3]; maximum concentration tested, 0.75 mM): almost inactive |
|  | 100.6% |  | 101.3% |  | 101.3% | CO[C@@H]1[C@H](O)[C@@H](O)[C@H](O[C@H]2[C@@H](O)[C@@H](CO[C@@H]3O[C@H](CO)[C@@H](O[C@@H]4O[C@H](CO)[C@H](O)[C@H](O)[C@H]4O)[C@H](O)[C@H]3NC(C)=O)O[C@H](OCc3ccccc3)[C@@H]2NC(C)=O)O[C@@H]1CO [Galβ1,4GlcNAcβ1,6(4-O-MeGalβ1,3)GalNAcα-O-Bn] |  | 112.0% | acceptor concentration at which maximum activity is reached (FIG. 3D) (LNCaP α2,3(O)ST; LNCaPα2,3(O)ST): 0.15 mM |
